From the supplement of paper PMC8882468

How the values were obtained:
Test in all cases: CTG-3D luminescence at 96 h relative to day-0 seeding control (ratio to day 0); higher = more growth / less cytotoxicity; PDxO 3D drug screen, 96 h, CTG-3D normalised to day-0 seeding control.
MDA-MB-231 = system: MDA-MB-231
HCI-002 = system: HCI-002 (organoid from a triple-negative breast cancer xenograft)
HCI-011.E2 = system: HCI-011.E2 (organoid from an ER-positive breast cancer xenograft)
HCI-023 = system: HCI-023 (organoid from a triple-negative breast cancer xenograft)
HCI-015 = system: HCI-015 (organoid from a triple-negative breast cancer xenograft)

CCc1c2c(nc3ccc(O)cc13)-c1cc3c(c(=O)n1C2)COC(=O)[C@]3(O)CC [SN-38]
CTG-3D luminescence at 96 h
Details | 12.5 pM | 0.00025 µM | 0.005 µM | 0.1 µM | 1 µM | 10 µM | 100 µM | 625 fM
HCI-011.E2 | 1.25 | 1.54 | 1.4 | 1.48 | 0.834 | 0.362 | 0.218 | 1.46
MDA-MB-231 | 4.45 | 4.3 | 3.73 | 2.38 | 1.55 | 0.665 | 0.568 | 4.4

CTG-3D luminescence at 96 h
Details | 12.5 pM | 0.00025 µM | 0.005 µM | 0.1 µM | 1 µM | 10 µM | 100 µM | 625 fM
HCI-002, days in culture: 62 | 3.11 | 2.44 | 1.01 | 0.53 | 0.117 | 0.0334 | 0.0217 | 3.05
HCI-002, days in culture: 82 | 3.04 | 3.05 | 1.13 | 0.606 | 0.265 | 0.0317 | 0.0208 | 3.43
HCI-002, days in culture: 91 | 3.6 | 2.86 | 0.92 | 0.659 | 0.289 | 0.0365 | 0.0217 | 3.54
HCI-002, days in culture: 191 | 2.67 | 2.76 | 1.31 | 0.721 | 0.356 | 0.0269 | 0.0208 | 2.87
HCI-002, days in culture: 209 | 2.21 | 2.28 | 0.962 | 0.556 | 0.155 | 0.0238 | 0.0205 | 2.49
HCI-002, days in culture: 227 | 5.46 | 4.33 | 1.89 | 1.13 | 0.464 | 0.0608 | 0.038 | 5.49
HCI-011.E2, days in culture: 74 | 2.34 | 1.84 | 2.09 | 1.85 | 1.06 | 0.399 | 0.23 | 2.21
HCI-015, days in culture: 172 | 2.31 | 1.87 | 1.68 | 0.173 | 0.101 | 0.0365 | 0.0336 | 2.79
HCI-015, days in culture: 191 | 1.52 | 1.32 | 0.538 | 0.0896 | 0.0635 | 0.0399 | 0.0305 | 1.5
HCI-015, days in culture: 218 | 2.35 | 1.74 | 1.05 | 0.109 | 0.0491 | 0.0388 | 0.0388 | 1.97
HCI-023, days in culture: 111 | 1.39 | 1.19 | 0.797 | 0.194 | 0.0332 | 0.0191 | 0.0103 | 1.53
HCI-023, days in culture: 128 | 2.09 | 1.68 | 0.754 | 0.391 | 0.0587 | 0.0307 | 0.0252 | 1.9

CS(=O)(=O)c1ccc(C(=O)Nc2ccc(Cl)c(-c3ccccn3)c2)c(Cl)c1 [vismodegib]
CTG-3D luminescence at 96 h
Details | 12.5 pM | 0.00025 µM | 0.005 µM | 0.1 µM | 1 µM | 10 µM | 100 µM | 625 fM
HCI-011.E2 | 1.44 | 1.41 | 1.58 | 1.72 | 1.61 | 1.85 | 1.13 | 1.67
MDA-MB-231 | 4.58 | 4.44 | 4.54 | 4.53 | 4.66 | 4.73 | 4 | 4.62

CTG-3D luminescence at 96 h
Details | 12.5 pM | 0.00025 µM | 0.005 µM | 0.1 µM | 1 µM | 10 µM | 100 µM | 625 fM
HCI-002, days in culture: 62 | 2.81 | 2.88 | 3.64 | 3.26 | 3.05 | 2.96 | 0.385 | 3.01
HCI-002, days in culture: 82 | 3.27 | 3.52 | 2.41 | 2.65 | 2.51 | 2.14 | 0.287 | 2.86
HCI-002, days in culture: 91 | 2.97 | 2.4 | 2.04 | 2.06 | 1.77 | 2.07 | 0.194 | 2.53
HCI-002, days in culture: 191 | 3.3 | 3.25 | 3.31 | 3.23 | 3.62 | 2.89 | 0.429 | 3.41
HCI-002, days in culture: 209 | 2.66 | 2.86 | 2.57 | 2.3 | 2.77 | 2.31 | 0.207 | 2.71
HCI-002, days in culture: 227 | 4.93 | 4.4 | 3.59 | 4.14 | 3.49 | 4.34 | 0.447 | 5.19
HCI-011.E2, days in culture: 74 | 2.31 | 1.93 | 1.98 | 2.31 | 2.12 | 3.48 | 1.49 | 2.36
HCI-015, days in culture: 172 | 2.23 | 2 | 1.97 | 1.34 | 1.97 | 1.25 | 0.214 | 3.01
HCI-015, days in culture: 191 | 2.65 | 1.16 | 1.77 | 1.1 | 1.7 | 1.15 | 0.207 | 1.54
HCI-015, days in culture: 218 | 1.6 | 1.48 | 1.63 | 1.61 | 1.73 | 1.61 | -0.148 | 2
HCI-023, days in culture: 111 | 1.92 | 1.62 | 1.41 | 1.48 | 1.15 | 1.34 | 0.248 | 1.6
HCI-023, days in culture: 128 | 1.29 | 1.4 | 1.39 | 1.46 | 1.31 | 1.86 | 0.552 | 1.67
